Source: PubChem BioAssay (NCI)
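At the GI50, growth is halved. TGI marks complete inhibition of growth.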

Legend:
Test in all cases: NCI tumour cell line growth inhibition, 384-well format
786-0 renal = tested on: 786-0 renal
A498 renal = tested on: A498 renal
A549 NSCLC = tested on: A549 NSCLC
ACHN renal = tested on: ACHN renal
BT-549 breast = tested on: BT-549 breast
CAKI-1 renal = tested on: CAKI-1 renal
COLO 205 colon = tested on: COLO 205 colon
DU-145 prostate = tested on: DU-145 prostate
EKVX NSCLC = tested on: EKVX NSCLC
HCC-2998 colon = tested on: HCC-2998 colon
HCT-116 colon = tested on: HCT-116 colon
HCT-15 colon = tested on: HCT-15 colon
HL-60(TB) leukemia = tested on: HL-60(TB) leukemia
HOP-62 NSCLC = tested on: HOP-62 NSCLC
HOP-92 NSCLC = tested on: HOP-92 NSCLC
HS 578T breast = tested on: HS 578T breast
HT29 colon = tested on: HT29 colon
IGROV1 ovarian = tested on: IGROV1 ovarian
KM12 colon = tested on: KM12 colon
LOX IMVI melanoma = tested on: LOX IMVI melanoma
M14 melanoma = tested on: M14 melanoma
MALME-3M melanoma = tested on: MALME-3M melanoma
MCF7 breast = tested on: MCF7 breast
MDA-MB-231 breast = tested on: MDA-MB-231 breast
MDA-MB-435 melanoma = tested on: MDA-MB-435 melanoma
MDA-MB-468 breast = tested on: MDA-MB-468 breast
MOLT-4 leukemia = tested on: MOLT-4 leukemia
NCI-H226 lung = tested on: NCI-H226 lung
NCI-H23 lung = tested on: NCI-H23 lung
NCI-H322M lung = tested on: NCI-H322M lung
NCI-H460 NSCLC = tested on: NCI-H460 NSCLC
NCI-H522 lung = tested on: NCI-H522 lung
NCI/ADR-RES ovarian = tested on: NCI/ADR-RES ovarian
OVCAR-3 ovarian = tested on: OVCAR-3 ovarian
OVCAR-4 ovarian = tested on: OVCAR-4 ovarian
OVCAR-5 ovarian = tested on: OVCAR-5 ovarian
OVCAR-8 ovarian = tested on: OVCAR-8 ovarian
PC-3 prostate = tested on: PC-3 prostate
RPMI-8226 leukemia = tested on: RPMI-8226 leukemia
RXF 393 renal = tested on: RXF 393 renal
SF-268 CNS = tested on: SF-268 CNS
SF-295 CNS = tested on: SF-295 CNS
SF-539 CNS = tested on: SF-539 CNS
SK-MEL-28 melanoma = tested on: SK-MEL-28 melanoma
SK-MEL-5 melanoma = tested on: SK-MEL-5 melanoma
SK-OV-3 ovarian = tested on: SK-OV-3 ovarian
SN12C renal = tested on: SN12C renal
SNB-19 CNS = tested on: SNB-19 CNS
SNB-75 CNS = tested on: SNB-75 CNS
SR leukemia = tested on: SR leukemia
SW-620 colon = tested on: SW-620 colon
T-47D breast = tested on: T-47D breast
TK-10 renal = tested on: TK-10 renal
U251 glioblastoma = tested on: U251 glioblastoma
UACC-257 melanoma = tested on: UACC-257 melanoma
UACC-62 melanoma = tested on: UACC-62 melanoma
UO-31 renal = tested on: UO-31 renal

`C[C@]12CC[C@@H]3c4ccc(OC(=O)N(CCCl)CCCl)cc4CC[C@H]3[C@@H]1CC[C@@H]2OP(=O)(O)O` showed a GI50 (786-0 renal) of over 100 µM, a TGI (786-0 renal) of over 100 µM and a GI50 (A498 renal) of over 100 µM. It also gave a TGI (A498 renal) of over 100 µM, a GI50 (A549 NSCLC) of over 100 µM and a TGI (A549 NSCLC) of over 100 µM. It also gave a GI50 (ACHN renal) of over 100 µM, a TGI (ACHN renal) of over 100 µM and a GI50 (BT-549 breast) of 25 µM. The TGI (BT-549 breast) was over 100 µM, the GI50 (CAKI-1 renal) was over 100 µM and the TGI (CAKI-1 renal) was over 100 µM. The GI50 (COLO 205 colon) was over 100 µM, the TGI (COLO 205 colon) was over 100 µM and the GI50 (DU-145 prostate) was over 100 µM. For the same molecule, the TGI (DU-145 prostate) was over 100 µM, the GI50 (EKVX NSCLC) was over 100 µM and the TGI (EKVX NSCLC) was over 100 µM. The GI50 (HCC-2998 colon) was over 100 µM, the TGI (HCC-2998 colon) was over 100 µM and the GI50 (HCT-116 colon) was over 100 µM. For the same molecule, the TGI (HCT-116 colon) was over 100 µM, the GI50 (HCT-15 colon) was over 100 µM and the TGI (HCT-15 colon) was over 100 µM. For the same molecule, the GI50 (HL-60(TB) leukemia) was over 100 µM, the TGI (HL-60(TB) leukemia) was over 100 µM and the GI50 (HOP-62 NSCLC) was over 100 µM. It also gave a TGI (HOP-62 NSCLC) of over 100 µM, a GI50 (HOP-92 NSCLC) of over 100 µM and a TGI (HOP-92 NSCLC) of over 100 µM. For the same molecule, the GI50 (HS 578T breast) was over 100 µM, the TGI (HS 578T breast) was over 100 µM and the GI50 (HT29 colon) was over 100 µM. It also gave a TGI (HT29 colon) of over 100 µM, a GI50 (IGROV1 ovarian) of over 100 µM and a TGI (IGROV1 ovarian) of over 100 µM. The GI50 (KM12 colon) was over 100 µM, the TGI (KM12 colon) was over 100 µM and the GI50 (LOX IMVI melanoma) was over 100 µM. For the same molecule, the TGI (LOX IMVI melanoma) was over 100 µM, the GI50 (M14 melanoma) was over 100 µM and the TGI (M14 melanoma) was over 100 µM. For the same molecule, the GI50 (MALME-3M melanoma) was over 100 µM, the TGI (MALME-3M melanoma) was over 100 µM and the GI50 (MCF7 breast) was over 100 µM. The TGI (MCF7 breast) was over 100 µM, the GI50 (MDA-MB-231 breast) was over 100 µM and the TGI (MDA-MB-231 breast) was over 100 µM. For the same molecule, the GI50 (MDA-MB-435 melanoma) was 41.2 µM, the TGI (MDA-MB-435 melanoma) was over 100 µM and the GI50 (MDA-MB-468 breast) was over 100 µM. The TGI (MDA-MB-468 breast) was over 100 µM, the GI50 (MOLT-4 leukemia) was over 100 µM and the TGI (MOLT-4 leukemia) was over 100 µM. It also gave a GI50 (NCI-H226 lung) of over 100 µM, a TGI (NCI-H226 lung) of over 100 µM and a GI50 (NCI-H23 lung) of over 100 µM. For the same molecule, the TGI (NCI-H23 lung) was over 100 µM, the GI50 (NCI-H322M lung) was over 100 µM and the TGI (NCI-H322M lung) was over 100 µM. For the same molecule, the GI50 (NCI-H460 NSCLC) was over 100 µM, the TGI (NCI-H460 NSCLC) was over 100 µM and the GI50 (NCI-H522 lung) was over 100 µM. The TGI (NCI-H522 lung) was over 100 µM, the GI50 (NCI/ADR-RES ovarian) was over 100 µM and the TGI (NCI/ADR-RES ovarian) was over 100 µM. The GI50 (OVCAR-3 ovarian) was over 100 µM, the TGI (OVCAR-3 ovarian) was over 100 µM and the GI50 (OVCAR-4 ovarian) was over 100 µM. For the same molecule, the TGI (OVCAR-4 ovarian) was over 100 µM, the GI50 (OVCAR-5 ovarian) was over 100 µM and the TGI (OVCAR-5 ovarian) was over 100 µM. It also gave a GI50 (OVCAR-8 ovarian) of over 100 µM, a TGI (OVCAR-8 ovarian) of over 100 µM and a GI50 (PC-3 prostate) of over 100 µM. For the same molecule, the TGI (PC-3 prostate) was over 100 µM, the GI50 (RPMI-8226 leukemia) was over 100 µM and the TGI (RPMI-8226 leukemia) was over 100 µM. It also gave a GI50 (RXF 393 renal) of 47.7 µM, a TGI (RXF 393 renal) of over 100 µM and a GI50 (SF-268 CNS) of over 100 µM. It also gave a TGI (SF-268 CNS) of over 100 µM, a GI50 (SF-295 CNS) of over 100 µM and a TGI (SF-295 CNS) of over 100 µM. The GI50 (SF-539 CNS) was over 100 µM, the TGI (SF-539 CNS) was over 100 µM and the GI50 (SK-MEL-28 melanoma) was over 100 µM. For the same molecule, the TGI (SK-MEL-28 melanoma) was over 100 µM, the GI50 (SK-MEL-5 melanoma) was over 100 µM and the TGI (SK-MEL-5 melanoma) was over 100 µM. The GI50 (SK-OV-3 ovarian) was over 100 µM, the TGI (SK-OV-3 ovarian) was over 100 µM and the GI50 (SN12C renal) was over 100 µM. For the same molecule, the TGI (SN12C renal) was over 100 µM, the GI50 (SNB-19 CNS) was over 100 µM and the TGI (SNB-19 CNS) was over 100 µM. For the same molecule, the GI50 (SNB-75 CNS) was over 100 µM, the TGI (SNB-75 CNS) was over 100 µM and the GI50 (SR leukemia) was over 100 µM. It also gave a TGI (SR leukemia) of over 100 µM, a GI50 (SW-620 colon) of over 100 µM and a TGI (SW-620 colon) of over 100 µM. It also gave a GI50 (T-47D breast) of over 100 µM, a TGI (T-47D breast) of over 100 µM and a GI50 (TK-10 renal) of over 100 µM. It also gave a TGI (TK-10 renal) of over 100 µM, a GI50 (U251 glioblastoma) of over 100 µM and a TGI (U251 glioblastoma) of over 100 µM. For the same molecule, the GI50 (UACC-257 melanoma) was over 100 µM, the TGI (UACC-257 melanoma) was over 100 µM and the GI50 (UACC-62 melanoma) was over 100 µM. The TGI (UACC-62 melanoma) was over 100 µM, the GI50 (UO-31 renal) was over 100 µM and the TGI (UO-31 renal) was over 100 µM.
